{"source": "patent US11806343B2", "about": "“Inhibitors of DUX4 induction for regulation of muscle function” (Sonic Master Limited, priority 2017, dated 2023)", "key": {"[1]": {"system": "Caspase 3/7", "experiment": "Live cell imaging of Caspase 3/7 cleavage dye fluorescence through myotube formation", "assay_type": "cell-based, human", "conditions": "17MB026 primary myotubes, six concentrations 10 nM-3 μM, imaged four days", "experimental": "17MB026 primary FSHD-affected patient myoblasts (obtained from the University of Rochester FSHD Biorepository) were thawed and cultured as described in Rickard et al., 2015 in primary myoblast medium. Cells (4000 per well) were seeded to a collagen-I coated 96-well plate in 100 μL primary myoblast medium. Medium was changed every other day until cells reached 80% continence followed by a switch to 100 μL per well primary myotube medium containing 1:5000 diluted Caspase 3/7 Green. Apoptosis Assay Reagent (Essen Bioscience). […] Cells were imaged in the phase and green channels every six hours for four days to quantify green intensity×area per image. Triplicate wells of each condition were averaged."}, "[2]": {"system": "Genea049 FSHD hESC-SkM", "experiment": "FSHD hESC-SkM immunocytochemistry, Myosin Heavy Chain and nuclei (myogenic inhibition/toxicity)", "assay_type": "cell-based, human", "experimental": "(§1) FIG. 6 provides an example of a screening and culturing workflow for hESC-SkM assays. At Day 0, hESC-derived myoblasts are thawed into a 96-well plate in myoblast medium (Genea BioCells). On Day 2, the medium is replaced with new myoblast medium containing 1.15 μM. Decitabine. […] On Day 7, the myotubes are analyzed. For example, the myotubes may be analyzed for MHC expression or DUX4 expression.\n(§2) Genea049 FSHD-affected human Embryonic Stem Cells (hESCs) were differentiated using Genea's myogenic differentiation protocol (Caron et 2015) to the myoblast stage and cryopreserved. Frozen myoblasts were resuscitated and 4500 cells were plated into each well of a 96-well collagen I coated tissue culture plate in myoblast medium. After two days of cell growth medium was changed to 100 μL per well myoblast medium containing 1.15 μM Decitabine. […] Cells were allowed to differentiate to myotubes for four additional days then were fixed and analyzed for quantification of DUX4 expression, Myosin Heavy Chain expression, and nuclei number. Triplicate wells of each condition were averaged.\nas §2, with “et al.,” for “et”, “number by high-content imaging.” for “number.”"}, "[3]": {"system": "4qA and D4Z4 regions of chromosome 4", "experiment": "Bisulfite sequencing of DNA methylation at 4qA and D4Z4 regions in FSHD-affected myotubes", "assay_type": "cell-based, human", "conditions": "Genea049 FSHD-affected myotubes, 10 nM, 100 nM or 1 μM, myotube day 3", "experimental": "Healthy (Genea015) or FSHD-affected (Genea049) MSC-derived myoblasts were cultured in Myoblast Media (Genea Biocells) while performing media changes every other day. When cells reached confluence, the medium was switched to Myottibe Medium (Genea Biocells) without any further media changes. On myotube day 3, cells were trypsinized and cell pellets were prepared for bisulfite sequencing analysis. Genomic DNA was isolated from cell pellets using QIAamp DNA Blood Mini Kit (Qiagen) and bisultite converted using the EpiTect Kit (Qiagen). The 4qA and D4Z4 regions were amplified and cloned into the pCR2.1 TOPO vector. The 4qA or D4Z4 containing plasmids were transformed into TOP10 chemically competent E. coli and selected for kanamycin resistance. Sequencing of kanamycin resistant colonies was completed by Sequegen and methylation analysis was performed using Bisulfite Sequencing DNA Methylation Analysis (BISMA) online software.\nFSHD-affected. (Genea049) embryonic stem cell-derived myoblasts were cultured in Myoblast Media (Genea Biocells) while performing media changes every other day. When cells reached confluence, the medium was switched to Myotube Medium (Genea. Biocells) without any further media changes. […] On myotube day 3, myotubes were trypsinized and cell pellets were prepared for bisulfite sequencing analysis. Refer to the FIG. 1 legend for additional details."}, "[4]": {"experiment": "Acute pharmacokinetic study, plasma", "assay_type": "in vivo, CD-1 mice", "conditions": "mouse plasma; for AUClast: 0 to 24 hours", "experimental": "(§3) Intraperitoneal injection, which provides the drug via absorption into the mesenteric blood supply and is thus subject to hepatic first-pass metabolism, was used to approximate oral dosings total of 96 mice were utilized: 3 naive CD-1 male mice and 3 naïve CD-1 female mice were dosed per route of administration per 2 doses plus 3 naive CD-1 male mice and 3 naïve CD-1 female mice were per route of administration per dose for tissue collection. Following administration, blood, brain, and muscle samples were collected as follows; Two blood samples were collected from each mouse at 2 distinct timepoints over 24 bout post-dose to include 0.25, 0.5, 1, 2, 4, 8, and 24 hours. Blood samples were centrifuged to obtain plasma samples. For each time point, duplicate aliquots of plasma were transferred into an appropriately labeled sample tube containing a volume of buffer. The diluted plasma samples were stored at −20° C. for the first 24 hours and then transferred to −80° C. 24 hours of processing. Terminal brain and muscle samples were collected at 1 hour and 24 hours after administration. Tissue samples were temporarily put on dry ice and then stored at −20° C. for the first 24 hours and then transferred to −80° C. 24 hours of collection Plasma, brain and muscle samples were analyzed for test substance quantification using a method based on protein precipitation followed by HPLC-MS/MS analysis within optimized bioanalytical method."}, "[5]": {"experiment": "Tissue distribution study, brain and muscle", "assay_type": "in vivo, CD-1 mice", "conditions": "mouse; for Uninjected muscle exposure / brain exposure: samples at 1 hour and 24 hours", "experimental": "as §3\nFIG. 31B. […] For IM injected animals, both the injected gastrocnemius muscle and the contralateral (uninjected gastrocnemius)) muscle were collected. […] Concentrations are shown as mean with SD, N=6"}, "[6]": {"system": "DUX4", "experiment": "FSHD hESC-SkM immunocytochemistry, DUX4 expression", "assay_type": "cell-based, human", "experimental": "as §1, §2\nas §2, with “et al.,” for “et”, “number by high-content imaging.” for “number.”"}, "[7]": {"conditions": "IM, 10 mg/kg single dose, N = 6"}, "[8]": {"conditions": "IM, 50 mg/kg single dose, N = 6"}, "[9]": {"conditions": "IP, 10 mg/kg single dose, N = 6"}, "[10]": {"conditions": "IP, 50 mg/kg single dose, N = 6"}}, "note": "Read-outs that look alike come from different tables or passages of the source."}
{"smiles": "CNC(=O)c1cc(Oc2ccc(NC(=O)Nc3cc(C(C)(C)C)nn3-c3ccc4ncccc4c3)c(F)c2)ccn1", "note": "[GBC0905, Rebastinib]", "values": [{"measurement": "Caspase 3/7 activation", "setting": "[1]", "value": "dose-dependent decrease in Caspase 3/7 activation"}, {"measurement": "Myosin Heavy Chain expression and nuclei count, dose curve", "setting": "[2]; 10 nM-3 μM, four days", "value": "not seen in cells treated with GBC0905 (Rebastinib) at concentrations lower than 3 μM"}, {"measurement": "Myosin Heavy Chain expression and nuclei count", "setting": "[2]; 100 nM, four days of culture", "value": "these effects are not seen"}, {"measurement": "DNA methylation levels at 4qA or D4Z4 regions", "setting": "[3]", "value": "No statistically significant effect"}, {"measurement": "tmax", "setting": "[4]; both sexes, CD-1, im, intramuscular injection, 10 or 50 mg/kg, read-out: median time to maximum concentration (Tmax)", "value": "2 to 4", "unit": "h"}, {"measurement": "AUClast", "setting": "[4]; [7]", "value": 93.54, "unit": "µg·h/mL"}, {"measurement": "AUC∞", "setting": "[4]; [7]", "value": 98.469, "unit": "µg·h/mL"}, {"measurement": "Cmax", "setting": "[4]; [7]", "value": 8203, "unit": "ng/mL"}, {"measurement": "MRT∞", "setting": "[4]; [7]", "value": 7.83, "unit": "h"}, {"measurement": "t1/2", "setting": "[4]; [7]", "value": 5.59, "unit": "h"}, {"measurement": "tmax", "setting": "[4]; [7]", "value": 2, "unit": "h"}, {"measurement": "AUClast", "setting": "[4]; [8]", "value": 222.518, "unit": "µg·h/mL"}, {"measurement": "AUC∞", "setting": "[4]; [8]", "value": 256.486, "unit": "µg·h/mL"}, {"measurement": "Cmax", "setting": "[4]; [8]", "value": 15103, "unit": "ng/mL"}, {"measurement": "MRT∞", "setting": "[4]; [8]", "value": 11.8, "unit": "h"}, {"measurement": "t1/2", "setting": "[4]; [8]", "value": 8.10, "unit": "h"}, {"measurement": "tmax", "setting": "[4]; [8]", "value": 4, "unit": "h"}, {"measurement": "AUClast", "setting": "[4]; [9]", "value": 162.488, "unit": "µg·h/mL"}, {"measurement": "AUC∞", "setting": "[4]; [9]", "value": 162.568, "unit": "µg·h/mL"}, {"measurement": "Cmax", "setting": "[4]; [9]", "value": 23683, "unit": "ng/mL"}, {"measurement": "MRT∞", "setting": "[4]; [9]", "value": 4.46, "unit": "h"}, {"measurement": "t1/2", "setting": "[4]; [9]", "value": 2.12, "unit": "h"}, {"measurement": "tmax", "setting": "[4]; [9]", "value": 2, "unit": "h"}, {"measurement": "AUClast", "setting": "[4]; [10]", "value": 651.387, "unit": "µg·h/mL"}, {"measurement": "AUC∞", "setting": "[4]; [10]", "value": 651.534, "unit": "µg·h/mL"}, {"measurement": "Cmax", "setting": "[4]; [10]", "value": 81633, "unit": "ng/mL"}, {"measurement": "MRT∞", "setting": "[4]; [10]", "value": 4.73, "unit": "h"}, {"measurement": "t1/2", "setting": "[4]; [10]", "value": 1.90, "unit": "h"}, {"measurement": "tmax", "setting": "[4]; [10]", "value": 2, "unit": "h"}, {"measurement": "median time to maximum concentration (Tmax)", "setting": "[4]; intraperitoneal injection, 10 or 50 mg/kg", "value": 2, "unit": "h"}, {"measurement": "Brain concentration", "setting": "[5]; 24 hours after IM injection at 10 mg/kg", "value": "below the Lower Limit of Quantification (LLOQ)"}, {"measurement": "Uninjected muscle exposure", "setting": "[5]; intramuscular administration", "value": "≤ 157", "unit": "ng/g"}, {"measurement": "brain exposure", "setting": "[5]; intramuscular administration", "value": "≤ 351", "unit": "ng/g"}, {"measurement": "Exposure of the injected muscle (gastrocnemius)", "setting": "[5]; intramuscular dosing, after 24 hours", "value": 1441667, "unit": "ng/g"}, {"measurement": "Uninjected muscle exposure", "setting": "[5]; intraperitoneal administration", "value": "up to 1336 ng/g"}, {"measurement": "brain exposure", "setting": "[5]; intraperitoneal administration", "value": "up to 441 ng/g"}, {"measurement": "DUX4 expression", "setting": "[6]; Genea049 hESC-SkM, 100 nM, four days of culture during myotube formation", "value": "decreased DUX4 expression"}, {"measurement": "DUX4 expression, dose curve", "setting": "[6]; Genea049 hESC-SkM, six concentration points 10 nM-3 μM, four days", "value": "dose-dependent decreased DUX4 expression"}, {"measurement": "IC50", "setting": "[6]; Homo sapiens, Genea049 hESC-SkM dose curve, read-out: estimated IC50 value, DUX4-suppressive effect", "value": "~100", "unit": "nM"}]}
